Laboratory results taken from patent US11572362B2, “Pyrrolo[1,2-b]pyridazine derivatives” (Gilead Sciences, Inc., priority 2018, dated 2023).

Columns and labels:
IRAK4 = IRAK4 (Homo sapiens (Human), UniProt Q9NWZ3); experiment: IRAK4 Biochemical Assay (TR-FRET/HTRF); conditions: IRAK4 enzyme 0.75 nM, 500 μM ATP, 2 μM STK1 peptide, 120 min
How it was run: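 Recombinant IRAK4 (0.75 nM) with 2 µM STK1 peptide and 500 µM ATP in pH 7.0 HEPES/Mg buffer; compound preincubated 15 min with enzyme and peptide, then 120 min reaction at room temperature. HTRF readout: cryptate anti-phospho-peptide antibody, 665/615 nm ratio; % inhibition against no-inhibitor and saturating-staurosporine controls.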

TNFα = experiment: IRAK4 Monocyte TNFα Cell Based Assay; conditions: cryopreserved human monocytes, 50 pg/ml LPS, compound 1 hour pre-treatment, 4 hours stimulation, TNFα by TR-FRET
How it was run: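 Monocytes at 5,000 cells/well were pre-treated with compound for 1 h at 37 °C (0.1% DMSO final), then stimulated with 50 pg/ml LPS for 4 h. Secreted TNFα in supernatant was measured by TR-FRET (665/615 ratio), expressed as % control relative to unstimulated and stimulated cells.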

Sequence of IRAK4 (Q9NWZ3 whole entry): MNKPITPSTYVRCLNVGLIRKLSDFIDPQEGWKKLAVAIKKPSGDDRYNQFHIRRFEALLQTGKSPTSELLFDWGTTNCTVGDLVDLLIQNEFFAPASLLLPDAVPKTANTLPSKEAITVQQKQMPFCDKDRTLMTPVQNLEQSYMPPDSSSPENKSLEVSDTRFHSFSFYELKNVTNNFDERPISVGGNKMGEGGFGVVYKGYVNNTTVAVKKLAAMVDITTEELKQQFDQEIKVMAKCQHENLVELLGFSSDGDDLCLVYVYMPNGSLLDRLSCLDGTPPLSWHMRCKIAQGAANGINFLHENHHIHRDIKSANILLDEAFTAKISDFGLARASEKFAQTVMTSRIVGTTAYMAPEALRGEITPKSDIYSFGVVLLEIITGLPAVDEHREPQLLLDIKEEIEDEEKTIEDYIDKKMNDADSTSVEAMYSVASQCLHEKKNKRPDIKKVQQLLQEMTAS

SMILES | IC50 (IRAK4) [nM] | EC50 (TNFα; Monocyte) [nM] | EC50 (TNFα) [nM]
CC(C)(O)[C@H](F)CNC(=O)c1cnc(-c2ccc3cc(C#N)cnn23)cc1N[C@H]1CC[C@H](c2nc(C(F)F)co2)CC1 [Compound 46, 6-(3-cyanopyrrolo[1,2-b]pyridazin-7-yl)-4-(((1r,4R)-4-(4-(difluoromethyl)oxazol-2-yl)cyclohexyl)amino)-N-((R)-2-fluoro-3-hydroxy-3-methylbutyl)nicotinamide] | 2 | 124 | –
Cc1noc([C@H]2CC[C@H](Nc3cc(-c4ccc5cc(C#N)cnn45)ncc3C(=O)NC[C@@H](F)C(C)(C)O)CC2)n1 [Compound 45, 6-(3-cyanopyrrolo[1,2-b]pyridazin-7-yl)-N-((R)-2-fluoro-3-hydroxy-3-methylbutyl)-4-(((1r,4R)-4-(3-methyl-1,2,4-oxadiazol-5-yl)cyclohexyl)amino)nicotinamide] | 2 | 85 | –
CC(C)(O)[C@H](F)CNC(=O)c1cnc(-c2ccc3cc(C#N)cnn23)cc1N[C@H]1CC[C@H](c2cnn(CC(F)F)c2)CC1 [Compound 5, 6-(3-cyanopyrrolo[1,2-b]pyridazin-7-yl)-4-(((1r,4R)-4-(1-(2,2-difluoroethyl)-1H-pyrazol-4-yl)cyclohexyl)amino)-N-((R)-2-fluoro-3-hydroxy-3-methylbutyl)nicotinamide] | < 1 | 22 | –
CC(C)(O)[C@H](F)CNC(=O)c1cnc(-c2ccc3cc(C#N)cnn23)cc1N[C@H]1CC[C@H](c2cnn(CC3CC3)c2)CC1 [Compound 13, 6-(3-cyanopyrrolo[1,2-b]pyridazin-7-yl)-4-(((1r,4R)-4-(1-(cyclopropylmethyl)-1H-pyrazol-4-yl)cyclohexyl)amino)-N-((R)-2-fluoro-3-hydroxy-3-methylbutyl)nicotinamide] | 2 | 169 | –
Cc1nnc(C23CCC(Nc4cc(-c5ccc6cc(C#N)cnn56)ncc4C(=O)NC[C@@H](F)C(C)(C)O)(CC2)CO3)o1 [Compound 64, (R)-6-(3-cyanopyrrolo[1,2-b]pyridazin-7-yl)-N-(2-fluoro-3-hydroxy-3-methylbutyl)-4-((1-(5-methyl-1,3,4-oxadiazol-2-yl)-2-oxabicyclo[2.2.2]octan-4-yl)amino)nicotinamide] | < 1 | 19 | –
CC(C)(O)[C@H](F)CNC(=O)c1cnc(-c2ccc3cc(C#N)cnn23)cc1N[C@H]1CC[C@H](c2cnn(C(F)F)c2)CC1 [Compound 3, 6-(3-cyanopyrrolo[1,2-b]pyridazin-7-yl)-4-(((1r,4R)-4-(1-(difluoromethyl)-1H-pyrazol-4-yl)cyclohexyl)amino)-N-((R)-2-fluoro-3-hydroxy-3-methylbutyl)nicotinamide] | < 1 | 9 | –
CC(C)(O)[C@H](F)CNC(=O)c1cnc(-c2ccc3cc(C#N)cnn23)cc1N[C@H]1CC[C@H](c2nnn(C(F)F)n2)CC1 [Compound 72, 6-(3-cyanopyrrolo[1,2-b]pyridazin-7-yl)-4-(((1r,4R)-4-(2-(difluoromethyl)-2H-tetrazol-5-yl)cyclohexyl)amino)-N-((R)-2-fluoro-3-hydroxy-3-methylbutyl)nicotinamide] | 0.639 | – | 31.3
CC(C)(O)[C@H](F)CNC(=O)c1cnc(-c2ccc3cc(C#N)cnn23)cc1NC12CCC(c3cnco3)(CC1)CC2 [Compound 66, (R)-6-(3-cyanopyrrolo[1,2-b]pyridazin-7-yl)-N-(2-fluoro-3-hydroxy-3-methylbutyl)-4-((4-(oxazol-5-yl)bicyclo[2.2.2]octan-1-yl)amino)nicotinamide] | < 1 | 8 | –
CC(C)(O)[C@H](F)CNC(=O)c1cnc(-c2ccc3cc(C#N)cnn23)cc1N[C@H]1CC[C@H](c2cn[nH]c2)CC1 [Compound 1, 4-(((1r,4R)-4-(1H-pyrazol-4-yl)cyclohexyl)amino)-6-(3-cyanopyrrolo[1,2-b]pyridazin-7-yl)-N-((R)-2-fluoro-3-hydroxy-3-methylbutyl)nicotinamide] | < 1 | 4 | –
CC(C)(O)[C@H](F)CNC(=O)c1cnc(-c2ccc3cc(C#N)cnn23)cc1NC1CCC(c2cnc(C(F)F)nc2)CC1 (stereo partly drawn) [Compound 59, (R)-6-(3-cyanopyrrolo[1,2-b]pyridazin-7-yl)-4-((4-(2-(difluoromethyl)pyrimidin-5-yl)cyclohexyl)amino)-N-(2-fluoro-3-hydroxy-3-methylbutyl)nicotinamide] | 1 | 21 | –
CC(C)(O)[C@H](F)CNC(=O)c1cnc(-c2ccc3cc(C#N)cnn23)cc1N[C@H]1CC[C@H](n2nccc2C(F)F)CC1 [Compound 28, 6-(3-cyanopyrrolo[1,2-b]pyridazin-7-yl)-4-(((1r,4R)-4-(5-(difluoromethyl)-1H-pyrazol-1-yl)cyclohexyl)amino)-N-((R)-2-fluoro-3-hydroxy-3-methylbutyl)nicotinamide] | 2 | 187 | –
CC(C)(O)[C@H](F)CNC(=O)c1cnc(-c2ccc3cc(C#N)cnn23)cc1N[C@H]1CC[C@H](c2ncn(C(F)F)n2)CC1 [Compound 22, 6-(3-cyanopyrrolo[1,2-b]pyridazin-7-yl)-4-(((1r,4R)-4-(1-(difluoromethyl)-1H-1,2,4-triazol-3-yl)cyclohexyl)amino)-N-((R)-2-fluoro-3-hydroxy-3-methylbutyl)nicotinamide] | 2 | 67 | –
CC(C)(O)[C@H](F)CNC(=O)c1cnc(-c2ccc3cc(C#N)cnn23)cc1N[C@H]1CC[C@H](n2cc(C3COC3)nn2)CC1 [Compound 33, 6-(3-cyanopyrrolo[1,2-b]pyridazin-7-yl)-N-((R)-2-fluoro-3-hydroxy-3-methylbutyl)-4-(((1r,4R)-4-(4-(oxetan-3-yl)-1H-1,2,3-triazol-1-yl)cyclohexyl)amino)nicotinamide] | 1 | 200 | –
Cc1nc([C@H]2CC[C@H](Nc3cc(-c4ccc5cc(C#N)cnn45)ncc3C(=O)NC[C@@H](F)C(C)(C)O)CC2)no1 [Compound 44, 6-(3-cyanopyrrolo[1,2-b]pyridazin-7-yl)-N-((R)-2-fluoro-3-hydroxy-3-methylbutyl)-4-(((1r,4R)-4-(5-methyl-1,2,4-oxadiazol-3-yl)cyclohexyl)amino)nicotinamide] | < 1 | 28 | –
CC(C)(O)[C@H](F)CNC(=O)c1cnc(-c2ccc3cc(C#N)cnn23)cc1N[C@H]1CC[C@H](c2cn(C(F)F)nn2)CC1 [Compound 18, 6-(3-cyanopyrrolo[1,2-b]pyridazin-7-yl)-4-(((1r,4R)-4-(1-(difluoromethyl)-1H-1,2,3-triazol-4-yl)cyclohexyl)amino)-N-((R)-2-fluoro-3-hydroxy-3-methylbutyl)nicotinamide] | 1 | 27 | –
Cn1nnc([C@H]2CC[C@H](Nc3cc(-c4ccc5cc(C#N)cnn45)ncc3C(=O)NC[C@@H](F)C(C)(C)O)CC2)n1 [Compound 15, 6-(3-cyanopyrrolo[1,2-b]pyridazin-7-yl)-N-((R)-2-fluoro-3-hydroxy-3-methylbutyl)-4-(((1r,4R)-4-(2-methyl-2H-tetrazol-5-yl)cyclohexyl)amino)nicotinamide] | < 1 | 35 | –
COCc1nnc([C@H]2CC[C@H](Nc3cc(-c4ccc5cc(C#N)cnn45)ncc3C(=O)NC[C@@H](F)C(C)(C)O)CC2)o1 [Compound 40, 6-(3-cyanopyrrolo[1,2-b]pyridazin-7-yl)-N-((R)-2-fluoro-3-hydroxy-3-methylbutyl)-4-(((1r,4R)-4-(5-(methoxymethyl)-1,3,4-oxadiazol-2-yl)cyclohexyl)amino)nicotinamide] | 1 | 66 | –
CCn1cc([C@H]2CC[C@H](Nc3cc(-c4ccc5cc(C#N)cnn45)ncc3C(=O)NC[C@@H](F)C(C)(C)O)CC2)cn1 [Compound 12, 6-(3-cyanopyrrolo[1,2-b]pyridazin-7-yl)-4-(((1r,4R)-4-(1-ethyl-1H-pyrazol-4-yl)cyclohexyl)amino)-N-((R)-2-fluoro-3-hydroxy-3-methylbutyl)nicotinamide] | 2 | 44 | –
Cn1cc([C@H]2CC[C@H](Nc3cc(-c4ccc5cc(C#N)cnn45)ncc3C(=O)NC[C@@H](F)C(C)(C)O)CC2)cn1 [Compound 7, 6-(3-cyanopyrrolo[1,2-b]pyridazin-7-yl)-N-((R)-2-fluoro-3-hydroxy-3-methylbutyl)-4-(((1r,4R)-4-(1-methyl-1H-pyrazol-4-yl)cyclohexyl)amino)nicotinamide] | 1 | 18 | –
CC(C)(O)[C@H](F)CNC(=O)c1cnc(-c2ccc3cc(C#N)cnn23)cc1N[C@@H]1CC[C@@H](c2nnc(C(F)F)o2)OC1 [Compound 63, 6-(3-cyanopyrrolo[1,2-b]pyridazin-7-yl)-4-(((3R,6S)-6-(5-(difluoromethyl)-1,3,4-oxadiazol-2-yl)tetrahydro-2H-pyran-3-yl)amino)-N-((R)-2-fluoro-3-hydroxy-3-methylbutyl)nicotinamide] | < 1 | 39 | –
CC(C)(O)[C@H](F)CNC(=O)c1cnc(-c2ccc3cc(C#N)cnn23)cc1N[C@H]1CC[C@H](c2cc(C(F)F)no2)CC1 [Compound 47, 6-(3-cyanopyrrolo[1,2-b]pyridazin-7-yl)-4-(((1r,4R)-4-(3-(difluoromethyl)isoxazol-5-yl)cyclohexyl)amino)-N-((R)-2-fluoro-3-hydroxy-3-methylbutyl)nicotinamide] | 2 | 89 | –
